Patent EP0308065A2, “Therapeutic nucleosides” (priority 1987, dated 1989)
Counter-ions that a name gives are not always drawn.

What was measured:
[1] = growth inhibition of uninfected mammalian cells (L cells); assay type: cell-based; details: mouse, three days exposure, L cells (murine), read-out: Cell Toxicity (% of control at 100µm) L-Cells
Method: (§1) The capability of candidate compounds to inhibit the growth of D98 cells (human) and L cells (murine) was measured by determination of cell number following three days exposure of a standard number of cells to various dilutions of compound (Rideout, J. L., Krenitsky, T.A., Koszalka, G.W., Cohn, N.K., Chao, E.Y. Elion, G.B., Latter, V.S., and Williams, R.B. (1982) J. Med Chem. 25: 1040-1044). The cell number was then compared to the number obtained in the absence of compound. Cell enumeration was performed by either direct particle counts following trypsinization of the monolayer, or by spectrophotometric determination of the amount of vital stain taken up by the cells.
(§2) The concentration of compound resulting in 50% of control values (IC50) was calculated either by direct interpolation from graphs of the log of the compound concentration versus the percent of control value, or from a computer program which analyses the data according to the same algorithm. Data in the range of 20% to 80% of control were used in these calculations.

[2] = growth inhibition of uninfected mammalian cells (D98); assay type: cell-based; details: three days exposure, D-98 cells (human), read-out: Cell Toxicity (% of control at 100µm) D-98 Cells
Method: as §1, §2

[3] = humans, after oral administration (background statement); cited from earlier work
[4] = tested on: Herpes Simplex Virus (HSV 1); assay: plaque reduction assay of HSV 1 in monolayers of Vero cells; assay type: cell-based; details: HSV 1, Vero cells, read-out: IC₅₀
Method: Herpes Simplex Virus (HSV 1) was assayed in monolayers of Vero cells in multiwell trays. Activity of compounds was determined in the plaque reduction assay, in which a cell monolayer was infected with a suspension of HSV 1, and then overlaid with nutrient agarose in the form of a gel to ensure that there was no spread of virus throughout the culture. A range of concentrations of compound of known molarity was incorporated in the nutrient agarose overlay. Plaque numbers at each concentration were expressed as percentages of the control and a dose-response curve was drawn. From this curve the 50% inhibitory concentration (IC₅₀) was estimated.

[5] = oral bioavailability: urinary recovery as acyclovir after gavage; details: Long Evans rats, dose equivalent to 25 mg/kg acyclovir, urine collected 24 and 48 hours post-dose
Method: Long Evans Rats were adminstered the compound to be tested by gavage at a dose equivalent to 25 mg/kg acyclovir. The urine was collected for 24 and 48 hours post-dose, ultrafiltered, and analysed by reverse-phase high-pressure liquid chromatography. The oral bioavailability of the compound was expressed as the percent of the dose excreted in the urine as acyclovir.

| IC50 [4] [µM] | Urinary Recovery (% of dose) as acyclovir [5] | SMILES | activity at 72 h, 100 µM [1] [%] | activity at 72 h, 100 µM [2] [%] | recovery in the urine [3] [%] |
| --- | --- | --- | --- | --- | --- |
| 3.8 | 50 % of dose | CC[C@H](C)[C@H](N)C(=O)OCCOCn1cnc2c(=O)[nH]c(N)nc21 [Example 2, 2-(2-amino-1,6-dihydro-6-oxo-9H(purin-9-yl)methoxy)ethyl L-isoleucinate hydrochloride] | 83 | 80 |  |
|  | 30 % of dose | NCC(=O)OCCOCn1cnc2c(=O)[nH]c(N)nc21 [Glycyl ester of ACV] |  |  |  |
|  | 34 % of dose | C[C@H](N)C(=O)OCCOCn1cnc2c(=O)[nH]c(N)nc21 [L -alanyl ester of ACV] |  |  |  |

Second part, the compound before the results:

| SMILES | IC50 [4] [µM] | Urinary Recovery (% of dose) as acyclovir [5] | activity at 72 h, 100 µM [1] [%] | activity at 72 h, 100 µM [2] [%] | recovery in the urine [3] [%] |
| --- | --- | --- | --- | --- | --- |
| Nc1nc2c(ncn2COCCO)c(=O)[nH]1 [Acyclovir, 9-(2-Hydroxyethoxymethyl)guanine] | 0.08 to 0.1 |  | 72 | 99 | 20 |
| CC(C)[C@H](N)C(=O)OCCOCn1cnc2c(=O)[nH]c(N)nc21 [Example 1B, 2-(2-Amino-1,6-dihydro-6-oxo-9H(purin-9-yl)methoxy) ethyl L-valinate hydrochloride monohydrate] |  |  | 85 | 91 |  |
